# Results taken from PubChem BioAssay AID1259408 (Genetic Toxicology Data Bank (GENE-TOX), 2018).
# Activity calls are given as the source filed them. No rule for the calls is given here.
# Test system: GENE-TOX genotoxicity assays, various organisms and cells
# Test: GENE-TOX mutagenicity studies
# Details: for call: Assay Type: In vivo carcinogenicity studies, Assay Code: CCG+
# [1] = Species/Cell Type: Drosophila melanogaster, Assay Type: Sex-linked recessive lethal gene mutation, Assay Code: SRL+, Evaluation Type: Evaluation A (Pre-1980)
# [2] = Species/Cell Type: Escherichia coli polA (W3119 vs P3478), Assay Type: Rec-assay, DNA effects (bacterial DNA repair), Assay Code: RE1+, Evaluation Type: Evaluation A (Pre-1980)
# [3] = Species/Cell Type: Human lymphocytes, Assay Type: Sister-chromatid exchange (SCE) in vitro, Assay Code: SCL+, Evaluation Type: Evaluation B (Post-1980)
# [4] = Species/Cell Type: Human, Assay Type: Sister-chromatid exchange (SCE) in vitro, Assay Code: SC1+, Evaluation Type: Evaluation B (Post-1980)
# [5] = Species/Cell Type: Mammalian polychromatic erythrocytes, Assay Type: Micronucleus test, chromosome aberrations, Assay Code: MNT+, Evaluation Type: Evaluation B (Post-1980)
# [6] = Species/Cell Type: Mammalian polychromatic erythrocytes, Assay Type: Micronucleus test, chromosome aberrations, Assay Code: MNTT, Evaluation Type: Evaluation A (Pre-1980)
# [7] = Species/Cell Type: Allium cepa, Assay Type: Chromosome aberrations, Assay Code: ALC-, Evaluation Type: Evaluation A (Pre-1980)
# [8] = Species/Cell Type: Nonhuman, Evaluation Type: Evaluation A (Pre-1980)
# [9] = Species/Cell Type: Nonhuman, Assay Type: Sister-chromatid exchange (SCE) in vivo, Assay Code: SC3+, Evaluation Type: Evaluation B (Post-1980)
# [10] = Species/Cell Type: Salmonella typhimurium (one or more of the five standard strains: TA98, TA100, TA1535, TA1537, and TA1538), Assay Type: Histidine reverse gene mutation, Ames assay, Assay Code: SAL+*, Activation: With metabolic activation, Evaluation Type: Evaluation A (Pre-1980)
# [11] = Species/Cell Type: Human, Assay Type: Sister-chromatid exchange (SCE) in vitro, Assay Code: SC1+D, Dose Response: With dose response, Evaluation Type: Evaluation B (Post-1980)
# [12] = Species/Cell Type: Human lymphocytes, Assay Type: Sister-chromatid exchange (SCE) in vitro, Assay Code: SCLT, Evaluation Type: Evaluation B (Post-1980)
# [13] = Species/Cell Type: Human, Assay Type: Sister-chromatid exchange (SCE) in vitro, Assay Code: SC1T, Evaluation Type: Evaluation B (Post-1980)
# [14] = Species/Cell Type: Salmonella typhimurium (one or more of the five standard strains: TA98, TA100, TA1535, TA1537, and TA1538), Assay Type: Histidine reverse gene mutation, Ames assay, Assay Code: SALT, Evaluation Type: Evaluation A (Pre-1980)
smiles,measurement,setting,value
O=NO,mutagenic call,"Species/Cell Type: Arabidopsis species, Assay Type: Gene mutation, Assay Code: ARMT, Evaluation Type: Evaluation A (Pre-1980)",no conclusion
same,mutagenic call,"Species/Cell Type: Aspergillus nidulans, Assay Type: Forward gene mutation, Assay Code: ASF+, Evaluation Type: Evaluation A (Pre-1980)",active; positive
same,mutagenic call,[1],active; positive
same,mutagenic call,[2],active; positive
same,mutagenic call,[3],active; positive
same,mutagenic call,[4],active; positive
same,mutagenic call,"Species/Cell Type: Mammalian oocytes or early embryo, Assay Type: Chromosome aberrations in vivo, Assay Code: CYO+, Evaluation Type: Evaluation A (Pre-1980)",active; positive
same,mutagenic call,[5],active; positive
same,mutagenic call,[6],no conclusion
same,mutagenic call,"Species/Cell Type: Mouse, Sex: Male, Assay Type: Heritable translocation test, chromosome aberrations, Assay Code: HTTT, Evaluation Type: Evaluation A (Pre-1980)",no conclusion
same,mutagenic call,"Species/Cell Type: Neurospora crassa, Assay Type: Forward gene mutation, Assay Code: NEF+, Evaluation Type: Evaluation A (Pre-1980)",active; positive
same,mutagenic call,"Species/Cell Type: Neurospora crassa, Assay Type: Reverse gene mutation, Assay Code: NER+, Evaluation Type: Evaluation A (Pre-1980)",active; positive
same,mutagenic call,"Species/Cell Type: Nonhuman, Assay Type: Chromosome aberrations in vitro, Assay Code: CY&+D, Dose Response: With dose response, Evaluation Type: Evaluation A (Pre-1980)",active; positive
same,mutagenic call,"Species/Cell Type: Nonhuman, Assay Type: Sister-chromatid exchange (SCE) in vitro, Assay Code: SC2+, Evaluation Type: Evaluation A (Pre-1980)",active; positive
same,mutagenic call,"Species/Cell Type: Nonhuman, Assay Type: Sister-chromatid exchange (SCE) in vivo, Assay Code: SC3T, Evaluation Type: Evaluation B (Post-1980)",no conclusion
same,mutagenic call,"Species/Cell Type: Rodents, Sex: Male, Assay Type: Dominant lethal test, Assay Code: DLT-, Evaluation Type: Evaluation A (Pre-1980)",inactive; negative
same,mutagenic call,"Species/Cell Type: Saccharomyces cerevisiae, Assay Type: Forward gene mutation, Assay Code: YEF+, Evaluation Type: Evaluation A (Pre-1980)",active; positive
same,mutagenic call,"Species/Cell Type: Saccharomyces cerevisiae, Assay Type: Mitotic recombination or gene conversion, Assay Code: YEC+, Evaluation Type: Evaluation A (Pre-1980)",active; positive
same,mutagenic call,"Species/Cell Type: Saccharomyces cerevisiae, Assay Type: Mitotic recombination or gene conversion, Assay Code: YEH+, Evaluation Type: Evaluation A (Pre-1980)",active; positive
same,mutagenic call,"Species/Cell Type: Saccharomyces cerevisiae, Assay Type: Reverse gene mutation, Assay Code: YER+, Evaluation Type: Evaluation A (Pre-1980)",active; positive
same,mutagenic call,"Species/Cell Type: Salmonella typhimurium (one or more of the five standard strains: TA98, TA100, TA1535, TA1537, and TA1538), Assay Type: Histidine reverse gene mutation, Ames assay, Assay Code: SAL+, Evaluation Type: Evaluation A (Pre-1980)",active; positive
same,mutagenic call,"Species/Cell Type: Salmonella typhimurium, Assay Type: Forward and reverse gene mutation, host-mediated assay, Assay Code: HMA-, Evaluation Type: Evaluation A (Pre-1980)",inactive; negative
same,mutagenic call,"Species/Cell Type: Schizosaccharomyces pombe, Assay Type: Forward gene mutation, Assay Code: YEY+, Evaluation Type: Evaluation A (Pre-1980)",active; positive
same,mutagenic call,"Species/Cell Type: Schizosaccharomyces pombe, Assay Type: Reverse gene mutation, Assay Code: YEZ+, Evaluation Type: Evaluation A (Pre-1980)",active; positive
same,mutagenic call,"Species/Cell Type: Syrian hamster embryo (SHE) cells, Assay Type: Cell transformation, clonal assay, Assay Code: CTC+, Evaluation Type: Evaluation A (Pre-1980)",active; positive
CCn1c(=O)c2c(ncn2CC)n(CC)c1=O,mutagenic call,[7],inactive; negative
CSCCC(N)C(=O)O (stereo not drawn),mutagenic call,"Species/Cell Type: Escherichia coli polA (W3119 vs P3478), Assay Type: Rec-assay, DNA effects (bacterial DNA repair), Assay Code: RE1T, Evaluation Type: Evaluation A (Pre-1980)",no conclusion
COCCOC(=O)c1ccccc1C(=O)OCCOC,mutagenic call,"Species/Cell Type: Rodents, Sex: Male, Assay Type: Dominant lethal test, Assay Code: DLTT, Evaluation Type: Evaluation A (Pre-1980)",no conclusion
C/C=C1\C[C@H]2[C@@H](OC)Nc3cc(O)c(OC)cc3C(=O)N2C1,mutagenic call,"Species/Cell Type: Mammalian polychromatic erythrocytes, Assay Type: Micronucleus test, chromosome aberrations, Assay Code: MNTT, Evaluation Type: Evaluation B (Post-1980)",no conclusion
CCOc1ccc(NC(C)=O)cc1,mutagenic call,[5],active; positive
same,call,[8],active; positive
same,mutagenic call,[9],active; positive
Cc1cc2ccccc2c2ccc3ccccc3c12,call,[8],active; positive
same,mutagenic call,[10],active; positive
Brc1ccc(C2CO2)cc1 (stereo not drawn),mutagenic call,"Species/Cell Type: Escherichia coli WP2 UVRA, Assay Type: Tryptophan reverse gene mutation, Assay Code: WPU+D, Dose Response: With dose response, Evaluation Type: Evaluation A (Pre-1980)",active; positive
OCc1ccn2c1[C@H](O)CC2,mutagenic call,"Species/Cell Type: Human lymphocytes, Assay Type: Sister-chromatid exchange (SCE) in vitro, Assay Code: SCL+D, Dose Response: With dose response, Evaluation Type: Evaluation B (Post-1980)",active; positive
same,mutagenic call,[11],active; positive
CCCCN(CC(=O)CC)N=O,mutagenic call,[10],active; positive
OC[C@H]1O[C@@](CO)(O[C@H]2O[C@H](CO)[C@@H](O)[C@H](O)[C@H]2O)[C@@H](O)[C@@H]1O,mutagenic call,[6],no conclusion
same,mutagenic call,"Species/Cell Type: Nonhuman, Assay Type: Sister-chromatid exchange (SCE) in vitro, Assay Code: SC2T, Evaluation Type: Evaluation B (Post-1980)",no conclusion
NNCCc1ccccc1,mutagenic call,"Species/Cell Type: Human, Sex: Male, Assay Type: Sperm morphology, Assay Code: SPHT, Evaluation Type: Evaluation A (Pre-1980)",no conclusion
same,mutagenic call,[9],active; positive
[O]=[W](=[O])([OH])[OH],mutagenic call,[12],no conclusion
same,mutagenic call,[13],no conclusion
CC(=O)Nc1nc(-c2ccc([N+](=O)[O-])s2)cs1,mutagenic call,[14],no conclusion
N[C@@H](CS)C(=O)O,mutagenic call,[7],inactive; negative
same,mutagenic call,[12],no conclusion
same,mutagenic call,[13],no conclusion
same,mutagenic call,"Species/Cell Type: Nonhuman, Assay Type: Sister-chromatid exchange (SCE) in vitro, Assay Code: SC2+D, Dose Response: With dose response, Evaluation Type: Evaluation B (Post-1980)",active; positive
Nc1c(O)ccc2ccccc12,mutagenic call,[2],active; positive
same,mutagenic call,[14],no conclusion
C=CC(=O)OCC,mutagenic call,[5],active; positive
CCNNCC,call,[8],active; positive
CN(C)P(=O)(N(C)C)N(C)C,mutagenic call,[1],active; positive
same,mutagenic call,"Species/Cell Type: Drosophila melanogaster, Sex: Male, Assay Type: Heritable translocation test, chromosome aberrations, Assay Code: DHT+, Evaluation Type: Evaluation A (Pre-1980)",active; positive
same,mutagenic call,"Species/Cell Type: Mammalian polychromatic erythrocytes, Assay Type: Micronucleus test, chromosome aberrations, Assay Code: MNT+, Evaluation Type: Evaluation A (Pre-1980)",active; positive
same,mutagenic call,"Species/Cell Type: Mouse, Sex: Male, Assay Type: Sperm morphology, Assay Code: SPI+, Evaluation Type: Evaluation A (Pre-1980)",active; positive
same,call,[8],active; positive
same,mutagenic call,"Species/Cell Type: Nonhuman, Assay Type: Sister-chromatid exchange (SCE) in vitro, Assay Code: SC2+D*, Activation: With metabolic activation, Dose Response: With dose response, Evaluation Type: Evaluation B (Post-1980)",active; positive
same,mutagenic call,"Species/Cell Type: Rabbit, Sex: Male, Assay Type: Sperm morphology, Assay Code: SPR+, Evaluation Type: Evaluation A (Pre-1980)",active; positive
same,mutagenic call,"Species/Cell Type: Rodents, Sex: Male, Assay Type: Dominant lethal test, Assay Code: DLT+, Evaluation Type: Evaluation A (Pre-1980)",active; positive
same,mutagenic call,"Species/Cell Type: Tradescantia species, Assay Type: Gene mutation, Assay Code: TRM+D, Dose Response: With dose response, Evaluation Type: Evaluation A (Pre-1980)",active; positive
CC(C)(Oc1ccc(C2CCCc3ccccc32)cc1)C(=O)O (stereo not drawn),call,[8],active; positive
Cc1cc(C(=O)NNCc2ccccc2)no1,mutagenic call,[9],active; positive
COc1cc2c3c(cc(C)c2c2ccccc12)C(=O)CC3,mutagenic call,[10],active; positive
[Cl][Ni][Cl],mutagenic call,"Species/Cell Type: Bacillus subtilis (H17 vs M45), Assay Type: Rec-assay, spot test, DNA effects (bacterial DNA repair), Assay Code: REW-, Evaluation Type: Evaluation A (Pre-1980)",inactive; negative
same,mutagenic call,"Species/Cell Type: Escherichia coli WP2, Assay Type: Tryptophan reverse gene mutation, Assay Code: WP2-, Evaluation Type: Evaluation A (Pre-1980)",inactive; negative
same,mutagenic call,[3],active; positive
same,mutagenic call,[4],active; positive
same,mutagenic call,"Species/Cell Type: Nonhuman, Assay Type: Sister-chromatid exchange (SCE) in vitro, Assay Code: SC2+, Evaluation Type: Evaluation B (Post-1980)",active; positive
same,mutagenic call,"Species/Cell Type: Salmonella typhimurium, Serratia marcesens, Assay Type: Forward and reverse gene mutation, host-mediated assay, Assay Code: HM2T, Evaluation Type: Evaluation A (Pre-1980)",no conclusion
CN(C)CC/C=C1/c2ccccc2Sc2ccc(Cl)cc21,mutagenic call,"Species/Cell Type: Nonhuman, Assay Type: Sister-chromatid exchange (SCE) in vitro, Assay Code: SC2+D, Dose Response: With dose response, Evaluation Type: Evaluation A (Pre-1980)",active; positive
O=c1[nH]c(=O)n([C@H]2C[C@H](O)[C@@H](CO)O2)cc1/C=C/Cl,mutagenic call,[11],active; positive
